Counter-ions that a name gives are not always drawn.
How the values were obtained:
[1] = molecular target: BCL-2 (Homo sapiens (Human), UniProt P10415); assay: Protein-protein interaction assay BCL-2/Bad BH3 peptide (BCL-2 assay, TR-FRET); type: binding; conditions: His-BCL-2 / Bad BH3 peptide, median
Method: Assay 3 Protein-Protein Interaction Assay: BCL-2/Bad BH3 Peptide (BCL-2 Assay)
The dose-dependent inhibition by the compounds described in this invention of the interaction between BCL-2 and the BH3 domain of Bad (both human) was determined using a steady state binding competition assay with time-resolved fluorescence energy transfer (TR-FRET) readout. For that purpose BCL-2 (amino acids 1-211, C-terminal fused to a hexahistidine (6×His) tag (SEQ ID 5) and a synthetic Bad BH3-derived peptide of sequence Biotin-PEG2-PEG2-NLWAAQRYGRELRR-Nle-SDEFVDSFKK-amide (SEQ ID 4) served as protein receptor and tracer ligand respectively. The recombinant BCL-2 protein (expressed in E. coli) was purchased from BPS Bioscience (San Diego, Calif., USA). The Bad BH3-derived peptide can be obtained from e.g. Biosyntan (Berlin, Germany).
In the assay 11 different concentrations of each compound (0.1 nM, 0.33 nM, 1.1 nM, 3.8 nM, 13 nM, 44 nM, 0.15 μM, 0.51 μM, 1.7 μM, 5.9 μM and 20 μM) were typically measured as duplicates in the same microtiter plate. For that, 100-fold concentrated DMSO solutions were prepared by serial dilutions (1:3.4) of a 2 mM stock solution in a clear, 384-well microtiter plate (Greiner Bio-One, Frickenhausen, Germany). From there, 50 nl were transferred in a dark test plate (Greiner Bio-One, Frickenhausen, Germany). The assay was initiated by addition of 2 μl of a 2.5-fold concentrated His-BCL-2 solution (usually for a 1 nM end concentration in 5 μl reaction volume) in aqueous assay buffer [50 mM Tris/HCl pH 7, 100 mM sodium chloride (NaCl), 50 mM potassium fluoride (KF), 0.005% Tween-20, 2 mM DTT, 0.1% bovine gamma globulin (BGG)] to the compounds in the assay plate. This was followed by a 10-minute incubation step at 22° C. for pre-equilibration of the putative complex between His-BCL-2 and the compounds. After that, 3 μl of a 1.67-fold concentrated solution (in assay buffer) consisting of Bad BH3-derived peptide (1 nM end concentration) and TR-FRET detection reagents [1.67 nM anti-His-Eu cryptate and 1.67 nM streptavidin-XL665 (both from Cisbio Bioassays, Codolet, France)], were added.
The mixture was incubated in the dark for one hour at 22° C. and then overnight at 4° C. The formation of BCL-2/Bad complexes was determined by measuring the resonance energy transfer of the anti-His-Eu-cryptate antibody to the streptavidin-XL665 present in the reaction. For that purpose, the fluorescence emission at 620 nm and 665 nm after excitation at 330-350 nm was measured in a TR-FRET measuring instrument, for instance a Rubystar or a Pherastar (both from BMG Lab Technologies, Offenburg, Germany) or a Viewlux (Perkin-Elmer). The ratio of the emission at 665 nm and at 622 nm was used as indicator of the amount of BCL-2/Bad complexes present.
The resulting data (ratio) were normalized, taking 0% inhibition as the mean value of control measurements (usually 32 data points) where all reagents were included. In this case 50 nl DMSO were used instead of compounds. A 100% inhibition corresponded to the mean value of control measurements (usually 32 data points) where all reagents except BCL-2 were included. IC50 values were determined by regression analysis based on a 4 parameter equation (minimum, maximum, IC50, Hill; Y=Max+(Min−Max)/(1+(X/IC50)^HiII) using the Screener Software (Genedata).

[2] = tested on: SUDHL10; assay: Induction of caspase-3/7 activity (Assay 4), SUDHL10; type: cell-based; conditions: caspase-3/7 induction, median
How it was run: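 Caspase-3/7 activity measured by Caspase-Glo 3/7 luminescence in DLBCL cells after 3 h compound treatment at 37 °C. Medium-only background subtracted. EC50 fitted with C0 fixed at 1 and top set to the reference compound's plateau/max induction.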

Chain of BCL-2 (P10415 other isoform, or with tags, fused parts or gaps): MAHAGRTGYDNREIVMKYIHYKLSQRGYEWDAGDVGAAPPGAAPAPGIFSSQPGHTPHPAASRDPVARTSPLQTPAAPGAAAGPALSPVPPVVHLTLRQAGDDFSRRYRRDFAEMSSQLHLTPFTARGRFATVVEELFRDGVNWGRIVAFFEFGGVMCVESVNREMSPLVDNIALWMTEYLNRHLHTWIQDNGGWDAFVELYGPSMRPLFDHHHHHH

SMILES	IC50 [1] [nM]	EC50 ([2]; Homo sapiens, SU-DHL10, 3 h) [nM]	EC50 ([2]; 3 hours) [nM]
Cc1c2c(nn1C)CN(CCN1CCOCC1)S(=O)(=O)CCCn1c(C(=O)O)c(CCCOc3cccc4ccccc34)c3cccc-2c31 (racemic) [Example 1, (rac)-2,3-Dimethyl-14-[2-(morpholin-4-yl)ethyl]-7-{3-[(naphthalen-1-yl)oxy]propyl}-13,13-dioxo-10,11,12,13,14,15-hexahydro-2H-13λ^6-pyrazolo[3′,4′:4,5][1,2,8]thiadiazacycloundecino-[6,7,8-hi]indole-8-carboxylic acid]	> 20000	14000	–
Cc1c2c(nn1C)CN(C)S(=O)(=O)CCCn1c(C(=O)O)c(CCCOc3cccc4ccccc34)c3ccc(Cl)c-2c31 (racemic) [Example 4, (rac)-4-Chloro-2,3,14-trimethyl-7-{3-[(naphthalen-1-yl)oxy]propyl}-13,13-dioxo-10,11,12,13,14,15-hexahydro-2H-13λ^6-pyrazolo[3′,4′:4,5][1,2,8]thiadiazacycloundecino-[6,7,8-hi]indole-8-carboxylic acid]	> 20000	–	1600
CCc1c2c(nn1C)CN(C)S(=O)(=O)CCCn1c(C(=O)O)c(CCCOc3cccc4cc(F)ccc34)c3ccc(F)c-2c31 (racemic) [Example 7, (rac)-12-Ethyl-13-fluoro-1-(3-((6-fluoronaphthalen-1-yl)oxy)propyl)-8,11-dimethyl-5,6,9,11-tetrahydro-4H,8H-pyrazolo[3′,4′:4,5][1]thia[2,8]diazacycloundecino[6,7,8-hi]indole-2-carboxylic acid 7,7-dioxide]	18000	740	–
CCc1c2c(nn1C)CN(C1CC1)S(=O)(=O)CCCn1c(C(=O)O)c(CCCOc3cccc4cc(F)ccc34)c3ccc(Cl)c-2c31 (racemic) [Example 53, (rac)-4-chloro-14-cyclopropyl-3-ethyl-7-{3-[(6-fluoro-1-naphthyl)oxy]propyl}-2-methyl-11,12,14,15-tetrahydro-2H,10H-pyrazolo[3′,4′:4,5][1,2,8]thiadiazacycloundecino[6,7,8-hi]indole-8-carboxylic acid 13,13-dioxide]	–	–	770
CCc1c2c(nn1C)CN(CC)S(=O)(=O)CCCn1c(C(=O)O)c(CCCOc3cccc4cc(F)ccc34)c3ccc(Cl)c-2c31 (racemic) [Example 56, (rac)-4-chloro-3,14-diethyl-7-{3-[(6-fluoro-1-naphthyl)oxy]propyl}-2-methyl-11,12,14,15-tetrahydro-2H,10H-pyrazolo[3′,4′:4,5][1,2,8]thiadiazacycloundecino[6,7,8-hi]indole-8-carboxylic acid 13,13-dioxide]	–	160	–
CCc1c2c(nn1C)C(CCC1CCOCC1)N(C)S(=O)(=O)CCCn1c(C(=O)O)c(CCCOc3cccc4cc(F)ccc34)c3ccc(Cl)c-2c31 (racemic) [Example 60, (rac)-4-chloro-3-ethyl-7-{3-[(6-fluoro-1-naphthyl)oxy]propyl}-2,14-dimethyl-15-[2-(tetrahydro-2H-pyran-4-yl)ethyl]-11,12,14,15-tetrahydro-2H,10H-pyrazolo[3′,4′:4,5][1,2,8]thiadiazacycloundecino[6,7,8-hi]indole-8-carboxylic acid 13,13-dioxide (Racemate 1)]	–	–	32
CCc1c2c(nn1C)C(CCN1CCOCC1)N(C)S(=O)(=O)CCCn1c(C(=O)O)c(CCCOc3cccc4cc(F)ccc34)c3ccc(Cl)c-2c31 (racemic) [Example 73, (rac)-(4-chloro-3-ethyl-7-{3-[(6-fluoronaphthalen-1-yl)oxy]propyl}-2,14-dimethyl-15-[2-(morpholin-4-yl)ethyl]-13,13-dioxo-10,11,12,13,14,15-hexahydro-2H-13lambda^6-pyrazolo[3′,4′:4,5][1,2,8]thiadiazacycloundecino[6,7,8-hi]indole-8-carboxylic acid (Racemate 1)]	–	–	230
Cc1c2c(nn1C)CN(C)S(=O)(=O)CCCn1c(C(=O)O)c(CCCOc3cccc4ccccc34)c3ccc(Cl)c-2c31 (single isomer, unassigned; enantiomer 1) [Example 5, 4-Chloro-2,3,14-trimethyl-7-{3-[(naphthalen-1-yl)oxy]propyl}-13,13-dioxo-10,11,12,13,14,15-hexahydro-2H-13λ^6-pyrazolo[3′,4′:4,5][1,2,8]thiadiazacycloundecino[6,7,8-hi]indole-8-carboxylic acid-N-ethylethanamine salt (Enantiomer 1)]	–	–	590
CCc1c2c(nn1C)CN(C1CC1)S(=O)(=O)CCCn1c(C(=O)O)c(CCCOc3cccc4cc(F)ccc34)c3ccc(Cl)c-2c31 (single isomer, unassigned; enantiomer 1) [Example 54, (−)-4-chloro-14-cyclopropyl-3-ethyl-7-{3-[(6-fluoronaphthalen-1-yl)oxy]propyl}-2-methyl-13,13-dioxo-10,11,12,13,14,15-hexahydro-2H-13lambda^6-pyrazolo[3′,4′:4,5][1,2,8]thiadiazacycloundecino[6,7,8-hi]indole-8-carboxylic acid N-ethylethanamine Salt (Enantiomer 1)]	–	–	520
Cc1c2c(nn1C)CN(C)S(=O)(=O)CCCn1c(C(=O)O)c(CCCOc3cccc4ccccc34)c3ccc(Cl)c-2c31 (single isomer, unassigned; enantiomer 2) [Example 6, 4-Chloro-2,3,14-trimethyl-7-{3-[(naphthalen-1-yl)oxy]propyl}-13,13-dioxo-10,11,12,13,14,15-hexahydro-2H-13λ^6-pyrazolo[3′,4′:4,5][1,2,8]thiadiazacycloundecino[6,7,8-hi]indole-8-carboxylic acid-N-ethylethanamine salt (Enantiomer 2)]	–	–	14000
Cc1c2c(nn1C)C(CCN1CCOCC1)N(C)S(=O)(=O)CCCn1c(C(=O)O)c(CCCOc3cccc4ccccc34)c3cccc-2c31 (single isomer, unassigned; enantiomer 2) [Example 46, 2,3,14-trimethyl-15-[2-(morpholin-4-yl)ethyl]-7-{3-[(naphthalen-1-yl)oxy]propyl}-13,13-dioxo-10,11,12,13,14,15-hexahydro-2H-13lambda^6-pyrazolo[3′,4′:4,5][1,2,8]thiadiazacycloundecino[6,7,8-hi]indole-8-carboxylic acid N-ethylethanamine Salt (Enantiomer 2)]	–	–	380
Cc1c2c(nn1C)C(CCN1CCOCC1)N(C)S(=O)(=O)CCCn1c(C(=O)O)c(CCCOc3cccc4cc(F)ccc34)c3ccc(Cl)c-2c31 (single isomer, unassigned; enantiomer 2) [Example 67, 4-chloro-7-{3-[(6-fluoronaphthalen-1-yl)oxy]propyl}-2,3,14-trimethyl-15-[2-(morpholin-4-yl)ethyl]-13,13-dioxo-10,11,12,13,14,15-hexahydro-2H-13lambda^6-pyrazolo[3′,4′:4,5][1,2,8]thiadiazacycloundecino[6,7,8-hi]indole-8-carboxylic acid (Enantiomer 2)]	–	–	12
CCNCC.CCc1c2c(nn1C)C(CCN1CCOCC1)N(C)S(=O)(=O)CCCn1c(C(=O)O)c(CCCOc3cccc4cc(F)ccc34)c3ccc(Cl)c-2c31 (single isomer, unassigned; enantiomer 2) [Example 76, 4-chloro-3-ethyl-7-{3-[(6-fluoronaphthalen-1-yl)oxy]propyl}-2,14-dimethyl-15-[2-(morpholin-4-yl)ethyl]-13,13-dioxo-10,11,12,13,14,15-hexahydro-2H-13lambda^6-pyrazolo[3′,4′:4,5][1,2,8]thiadiazacycloundecino[6,7,8-hi]indole-8-carboxylic acid-N-ethylethanamine Salt (Enantiomer 2)]	–	–	5.5

— patent US11401278B2, “Macrocyclic indole derivatives” (The Broad Institute, Inc., priority 2017, dated 2022)
